Results published in patent US12528788B2, “Pesticidally active benzene- and azine-amide compounds” (SYNGENTA CROP PROTECTION AG, priority 2018, dated 2026).

Assays:
Assay type in all cases: in vivo
Diabrotica balteata = experiment: Example B1: Diabrotica balteata (corn root worm), maize sprouts sprayed, L2 larvae; conditions: 96 h, application rate of 200 ppm, 4 days after infestation, L2 larvae on maize sprouts, read-out: control in at least one of the two categories (mortality or growth inhibition)
Method: Example B1: Diabrotica balteata (Corn Root Worm)
Maize sprouts placed onto an agar layer in 24-well microtiter plates were treated with aqueous test solutions prepared from 10′000 ppm DMSO stock solutions by spraying. After drying, the plates were infested with L2 larvae (6 to 10 per well). The samples were assessed for mortality and growth inhibition in comparison to untreated samples 4 days after infestation.

Euschistus heros = experiment: Example B2: Euschistus heros (neotropical brown stink bug), soybean leaves sprayed, N2 nymphs; conditions: 120 h, application rate of 200 ppm, 5 days after infestation, N2 nymphs on soybean leaves, read-out: control in at least one of the two categories (mortality or growth inhibition)
Method: Example B2: Euschistus heros (Neotropical Brown Stink Bug)
Soybean leaves on agar in 24-well microtiter plates were sprayed with aqueous test solutions prepared from 10′000 ppm DMSO stock solutions. After drying the leaves were infested with N2 nymphs. The samples were assessed for mortality and growth inhibition in comparison to untreated samples 5 days after infestation.

Chilo suppressalis = experiment: Example B4: Chilo suppressalis (striped rice stemborer), artificial diet, L2 larvae; conditions: 144 h, application rate of 200 ppm, 6 days after infestation, read-out: control in at least one of the three categories (mortality, anti-feedant effect or growth inhibition)
Method: Example B4: Chilo suppressalis (Striped Rice Stemborer)
24-well microtiter plates with artificial diet were treated with aqueous test solutions prepared from 10′000 ppm DMSO stock solutions by pipetting. After drying, the plates were infested with L2 larvae (6-8 per well). The samples were assessed for mortality, anti-feeding effect, and growth inhibition in comparison to untreated samples 6 days after infestation. Control of Chilo suppressalis by a test sample is given when at least one of the categories mortality, anti-feedant effect, and growth inhibition is higher than the untreated sample.

Plutella xylostella [1] = experiment: Example B5: Plutella xylostella (diamond back moth), artificial diet, 24-well, eggs; conditions: 192 h, application rate of 200 ppm, 8 days after infestation, read-out: control in at least one of the two categories (mortality or growth inhibition)
Method: Example B5: Plutella xylostella (Diamond Back Moth)
24-well microtiter plates with artificial diet were treated with aqueous test solutions prepared from 10′000 ppm DMSO stock solutions by pipetting. After drying, Plutella eggs were pipetted through a plastic stencil onto a gel blotting paper and the plate was closed with it. The samples were assessed for mortality and growth inhibition in comparison to untreated samples 8 days after infestation.

Myzus persicae [2] = experiment: Example B8: Myzus persicae (green peach aphid) intrinsic activity; conditions: 120 h, test rate of 12 ppm, 5 days after infestation, sucrose solution
Source text: Example B8: Myzus persicae (Green Peach Aphid). Intrinsic Activity
Test compounds prepared from 10′000 ppm DMSO stock solutions were applied by pipette into 24-well microtiter plates and mixed with sucrose solution. The plates were closed with a stretched Parafilm. A plastic stencil with 24 holes was placed onto the plate and infested pea seedlings were placed directly on the Parafilm. The infested plate was closed with a gel blotting paper and another plastic stencil and then turned upside down. The samples were assessed for mortality 5 days after infestation.

Spodoptera littoralis [3] = experiment: Example B9: Spodoptera littoralis (Egyptian cotton leaf worm), cotton leaf discs sprayed, L1 larvae; conditions: foliar, 72 h, application rate of 200 ppm, 3 days after infestation, read-out: control in at least one of the three categories (mortality, anti-feedant effect or growth inhibition)
Thrips tabaci = experiment: Example B12: Thrips tabaci (onion thrips) feeding/contact activity; conditions: foliar, 144 h, application rate of 200 ppm, 6 days after infestation, sunflower leaf discs
Method: Example B12: Thrips tabaci (Onion Thrips) Feeding/Contact Activity
(§1) Sunflower leaf discs were placed on agar in 24-well microtiter plates and sprayed with aqueous test solutions prepared from 10′000 ppm DMSO stock solutions. After drying the leaf discs were infested with a Thrips population of mixed ages. The samples were assessed for mortality 6 days after infestation.

Myzus persicae [4] = experiment: Example B13: Myzus persicae (green peach aphid), 96-well sucrose solution; conditions: 120 h, application rate of 50 ppm, 5 days after infestation
Source text: Example B13: Myzus persicae (Green Peach Aphid)
Test compounds prepared from 10′000 ppm DMSO stock solutions were applied by a liquid handling robot into 96-well microtiter plates and mixed with a sucrose solution. Parafilm was stretched over the 96-well microtiter plate and a plastic stencil with 96 holes was placed onto the plate. Aphids were sieved into the wells directly onto the Parafilm. The infested plates were closed with a gel blotting card and a second plastic stencil and then turned upside down. The samples were assessed for mortality 5 days after infestation.

Plutella xylostella [5] = experiment: Example B14: Plutella xylostella (diamondback moth), 96-well artificial diet; conditions: 216 h, application rate of 500 ppm, 9 days after infestation
Method: Example B14: Plutella xylostella (Diamondback Moth)
96-well microtiter plates containing artificial diet were treated with aqueous test solutions, prepared from 10′000 ppm DMSO stock solutions, by a liquid handling robot. After drying, eggs (˜30 per well) were infested onto a netted lid which was suspended above the diet. The eggs hatch and L1 larvae move down to the diet. The samples were assessed for mortality 9 days after infestation.

[6] = system: Frankliniella occidentalis; experiment: Example B3: Frankliniella occidentalis (western flower thrips) feeding/contact activity; conditions: foliar, 168 h, application rate of 200 ppm, 7 days after infestation, sunflower leaf discs, mixed ages
Method: Example B3: Frankliniella occidentalis (Western Flower Thrips) Feeding/Contact Activity
as §1, with “[…]” for “10′000 ppm”, “Frankliniella” for “Thrips”, “7” for “6”

Myzus persicae [7] = experiment: Example B6: Myzus persicae (green peach aphid) feeding/contact activity; conditions: foliar, 144 h, application rate of 200 ppm, 6 days after infestation, sunflower leaf discs
Method: Example B6: Myzus persicae (Green Peach Aphid) Feeding/Contact Activity
Sunflower leaf discs were placed onto agar in a 24-well microtiter plate and sprayed with aqueous test solutions prepared from 10′000 ppm DMSO stock solutions. After drying, the leaf discs were infested with an aphid population of mixed ages. The samples were assessed for mortality 6 days after infestation.

Myzus persicae [8] = experiment: Example B7: Myzus persicae (green peach aphid) systemic activity; conditions: 144 h, test rate of 24 ppm, 6 days after placing seedlings into test solutions, pea seedlings
Method: Example B7: Myzus persicae (Green Peach Aphid) Systemic Activity
Roots of pea seedlings infested with an aphid population of mixed ages were placed directly into aqueous test solutions prepared from 10′000 DMSO stock solutions. The samples were assessed for mortality 6 days after placing seedlings into test solutions.

Spodoptera littoralis [9] = experiment: Example B10: Spodoptera littoralis (Egyptian cotton leaf worm), uptake by lettuce roots from agar; conditions: 144 h, test rate of 12.5 ppm, 6 days after infestation, lettuce grown on treated agar, read-out: control in at least one of the three categories (mortality, anti-feeding, or growth inhibition)
Source text: Example B10: Spodoptera littoralis (Egyptian Cotton Leaf Worm)
Test compounds were applied by pipette from 10′000 ppm DMSO stock solutions into 24-well plates and mixed with agar. Lettuce seeds were placed onto the agar and the multi well plate was closed by another plate which contained also agar. After 7 days the compound was absorbed by the roots and the lettuce grew into the lid plate. The lettuce leaves were then cut off into the lid plate. Spodoptera eggs were pipetted through a plastic stencil onto a humid gel blotting paper and the lid plate was closed with it. The samples were assessed for mortality, anti-feedant effect and growth inhibition in comparison to untreated samples 6 days after infestation.

Tetranychus urticae = experiment: Example B11: Tetranychus urticae (two-spotted spider mite) feeding/contact activity; conditions: foliar, 192 h, application rate of 200 ppm, 8 days after infestation, bean leaf discs, mixed population (mobile stages)
Method: Example B11: Tetranychus urticae (Two-Spotted Spider Mite): Feeding/Contact Activity
as §1, with “Bean” for “Sunflower”, “discs” for “discs were placed”, “were” for “and”, “mite” for “Thrips”, “on mixed population (mobile stages) 8” for “6”

CC(c1nccnc1-c1ncccn1)N(CC1CC1)C(=O)c1cc(C(F)(F)F)cc(C(F)(F)F)c1 (centres unmarked) [Compound P5, N-(cyclopropylmethyl)-N-[1-(3-pyrimidin-2-ylpyrazin-2-yl)ethyl]-3,5-bis(trifluoromethyl)benzamide]
≥ 80%: percent control (mortality or growth inhibition) at 200 ppm (Diabrotica balteata) | percent control (mortality or growth inhibition) at 200 ppm (Euschistus heros) | percent control (mortality, anti-feedant effect or growth inhibition) at 200 ppm (Chilo suppressalis) | percent control (mortality or growth inhibition) at 200 ppm (Plutella xylostella [1]) | mortality at 12 ppm (Myzus persicae [2]) | percent control (mortality, anti-feedant effect or growth inhibition) at 200 ppm (Spodoptera littoralis [3]) | mortality at 200 ppm (Thrips tabaci) | mortality at 50 ppm (Myzus persicae [4]) | mortality at 500 ppm (Plutella xylostella [5])

CC(NC(=O)c1cc(SC(F)(F)F)cc(C(F)(F)F)c1)c1nccnc1-c1ncccn1 (centres unmarked) [Compound P19, N-[1-(3-pyrimidin-2-ylpyrazin-2-yl)ethyl]-3-(trifluoromethyl)-5-(trifluoromethylsulfanyl)benzamide]
≥ 80%: percent control (mortality or growth inhibition) at 200 ppm (Diabrotica balteata) | mortality at 200 ppm [6] | percent control (mortality, anti-feedant effect or growth inhibition) at 200 ppm (Chilo suppressalis) | percent control (mortality or growth inhibition) at 200 ppm (Plutella xylostella [1]) | mortality at 12 ppm (Myzus persicae [2]) | percent control (mortality, anti-feedant effect or growth inhibition) at 200 ppm (Spodoptera littoralis [3]) | mortality at 50 ppm (Myzus persicae [4]) | mortality at 500 ppm (Plutella xylostella [5])

CC(NC(=O)c1cc(OC(F)F)cc(C(F)(F)F)c1)c1nccnc1-c1ncccn1 (centres unmarked) [Compound P23, 3-(difluoromethoxy)-N-[1-(3-pyrimidin-2-ylpyrazin-2-yl)ethyl]-5-(trifluoromethyl)benzamide]
≥ 80%: percent control (mortality or growth inhibition) at 200 ppm (Diabrotica balteata) | percent control (mortality or growth inhibition) at 200 ppm (Euschistus heros) | percent control (mortality, anti-feedant effect or growth inhibition) at 200 ppm (Chilo suppressalis) | percent control (mortality or growth inhibition) at 200 ppm (Plutella xylostella [1]) | mortality at 200 ppm (Myzus persicae [7]) | mortality at 24 ppm (Myzus persicae [8]) | mortality at 12 ppm (Myzus persicae [2]) | percent control (mortality, anti-feedant effect or growth inhibition) at 200 ppm (Spodoptera littoralis [3]) | percent control (mortality, anti-feeding or growth inhibition) at 12.5 ppm (Spodoptera littoralis [9]) | mortality at 200 ppm (Tetranychus urticae) | mortality at 50 ppm (Myzus persicae [4]) | mortality at 500 ppm (Plutella xylostella [5])
